Data on six compounds can be found in patent publication US11447502B2, “Antibacterial agents: dual-targeted RNA polymerase inhibitors” (priority 2018, dated 2022).

In brackets after ≈: the same amount, converted by molar mass.

Assay [1] has as its system M. tuberculosis H37Rv. As to the kind of experiment: Microplate Alamar Blue MIC assay, M. tuberculosis H37Rv. The class given is cell-based. The note with it: Mycobacterium tuberculosis, read-out: antibacterial activity M. tuberculosis H37Rv MIC. For orientation: The colour change of resazurin is a common sign of viable cells or microbes.
In assay [2] the test system is M. avium ATCC 25291. Kind of assay: Microplate Alamar Blue MIC assay, M. avium. The class given is cell-based, Mycobacterium avium.

The term MIC denotes the lowest concentration found to suppress growth. For the compound `[2H]C([2H])(c1ccccc1)C(NC(=O)c1ccccc1F)C(=O)Nc1cc(F)ccc1N1CCN(/N=C/C2=C3NC(=O)/C(C)=C\C=C\[C@H](C)[C@H](O)[C@@H](C)[C@@H](O)[C@@H](C)[C@H](OC(C)=O)[C@H](C)[C@@H](OC)/C=C/O[C@@]4(C)Oc5c(C)c(O)c(c(c5C4=O)C2=O)C3=O)CC1` (some centres unmarked) [IX-476a, Rifamycin S—(CHN)—IX-370a Conjugate], in assay [1], the MIC is 0.2 µg/mL (≈ 0.168 µM).
As for `CO[C@H]1/C=C/O[C@@]2(C)Oc3c(C)c(O)c4c(O)c(c(/C=N/N5CCN(CCN6CCN(c7ccc(F)cc7NC(=O)C(Cc7ccccc7)NC(=O)c7ccccc7F)CC6)CC5)c(O)c4c3C2=O)NC(=O)/C(C)=C\C=C\[C@H](C)[C@H](O)[C@@H](C)[C@@H](O)[C@@H](C)[C@H](OC(C)=O)[C@@H]1C` (some centres unmarked) [IX-403, Rifamycin SV—(CHN)—IX-402 Conjugate], the MIC in assay [1] was 3.13 µg/mL (≈ 2.41 µM). Besides, the “antibacterial activity M. avium ATCC 25291” value in assay [2] was 3.13.
`[2H]C([2H])(c1ccccc1)C(NC(=O)c1ccccc1F)C(=O)Nc1cc(F)ccc1N1CCN(/N=C/c2c3c(O)c4c(O)c(C)c5c(c4c2O)C(=O)[C@@](C)(O/C=C/[C@H](OC)[C@@H](C)[C@@H](OC(C)=O)[C@H](C)[C@H](O)[C@H](C)[C@@H](O)[C@@H](C)/C=C/C=C(/C)C(=O)N3)O5)CC1` (some centres unmarked) [IX-404a, Rifamycin SV—(CHN)—IX-370a Conjugate]: the MIC in assay [1] stood at 0.049 µg/mL (≈ 0.0412 µM). Also, the “antibacterial activity M. avium ATCC 25291” value in assay [2] was determined as 0.048.
As for `CO[C@H]1/C=C/O[C@@]2(C)Oc3c(C)c(O)c4c(O)c(c(/C=N/N5CCN(c6ccc(F)cc6NC(=O)C(Cc6ccccc6)NC(=O)c6ccccc6F)CC5)c(O)c4c3C2=O)NC(=O)/C(C)=C\C=C\[C@H](C)[C@H](O)[C@@H](C)[C@@H](O)[C@@H](C)[C@H](OC(C)=O)[C@@H]1C` (some centres unmarked) [IX-398, Rifamycin SV—(CHN)—IX-214 Conjugate], the MIC in assay [1] is 0.39 µg/mL (≈ 0.328 µM). In addition, in assay [2], the “antibacterial activity M. avium ATCC 25291” value was 0.098.
For `CO[C@H]1/C=C/O[C@@]2(C)Oc3c(C)c(O)c4c(O)c(c(/C=N/N5CCN(C)CC5)c(O)c4c3C2=O)NC(=O)/C(C)=C\C=C\[C@H](C)[C@H](O)[C@@H](C)[C@@H](O)[C@@H](C)[C@H](OC(C)=O)[C@@H]1C` [rifampin, reference compound], in assay [1], the MIC amounted to 0.049 µg/mL (≈ 0.0595 µM). Moreover, the “antibacterial activity M. avium ATCC 25291” value in assay [2] is 0.024.
Take `[2H]C([2H])(c1ccccc1)C(NC(=O)c1ccccc1F)C(=O)Nc1cc(F)ccc1N1CCN(C(=O)COc2cc3c(O)c4c(O)c(C)c5c(c24)C(=O)[C@@](C)(O/C=C/[C@H](OC)[C@@H](C)[C@@H](OC(C)=O)[C@H](C)[C@H](O)[C@H](C)[C@@H](O)[C@@H](C)/C=C/C=C(/C)C(=O)N3)O5)CC1` (some centres unmarked) [IX-408a, Rifamycin B—IX-370a Conjugate]: the MIC in assay [1] came out at 0.2 µg/mL (≈ 0.166 µM). In assay [2], the “antibacterial activity M. avium ATCC 25291” value was 0.78.
